From PubChem BioAssay AID2060489 (Molecular Pharmacology Branch, DTP, NCI, 2025)
pIC50: −log10 of the molar value.

Tested on: 922993-354-T-J3-PDC complex spheroids, viability
Assay: Anticancer human tumor 922993-354-T-J3-PDC patient-derived endometrial carcinoma cell line growth inhibition [GQUAD]
Details: for pIC50: curve of first compound; for viability, T/C: stronger effect = lower value
Text: DNA G-quadruplex Stabilizer Agents in Combinations in Complex Spheroids
A high-throughput screen of multi-cell type tumor spheroids was designed to identify active combinations of DNA G-quadruplex stabilizer agents and targeted small molecules. Complex spheroids include a stromal component modeled by human endothelial cells (HUVEC) and fibroblasts modeled by human mesenchymal stem cells (MSCs). The concentration ranges selected for each drug and investigational agent were based upon clinically achievable concentrations if the clinical Cmax of the agent was known.
Compounds. The drugs and investigational agents: pidnarulex (CX-5461; NSC782164), APTO-253 (NSC789042), BRACO-19 (NSC847499), peposertib (NSC802822), ceralasertib (NSC780249), elimusertib (NSC800525), camonsertib (NSC841442), AZD-1390 (NSC803789), olaparib (NSC753686), talazoparib (NSC767125), ART-558 (NSC835418), sotorasib (NSC818433), MRTX-1133 (NSC836407), SN-38 (NSC673596), topotecan (NSC609699), etoposide (NSC141540), doxorubicin (NSC123127), gemcitabine (NSC613327), 5-fluorouracil (NSC19893), paclitaxel (NSC125973), vemurafenib (NSC761431), panobinostat (NSC761190), R-306465 (JNJ-16241199; NSC773264), adavosertib (NSC754352), TP-3654 (NSC805149), carboplatin (NSC241240), KSQ-4279 (NSC840948), and staurosporine (NSC755774) were obtained from the National Cancer Institute (NCI) Developmental Therapeutics Program Chemical Repository (34). The FDA-approved anticancer drug set is available from the NCI Developmental Therapeutics Program. […] The stock solutions were prepared in dimethyl sulfoxide (DMSO, Sigma-Aldrich, St. Louis, MO, cat. D2650) at 800-fold the tested concentration and stored at -70 degrees C prior to their use. All drugs and investigational agents were tested over a range starting from a high concentration at or near the clinical Cmax and decreasing in half-log increments. If the clinical Cmax for an agent had not been determined, the highest concentration tested was 10 microM.
2.3 Cell Culture. All cells were maintained in an incubator at 37 degrees C and 5% CO2 with 95% humidity. The PDC lines were cultured according to standard operating procedures established by the NCI PDMR. All PDCs were thawed and cultured in Matrigel-coated flasks prepared with a working solution of 1X Ham's F-12 nutrient mix, without supplementation (Invitrogen, cat. 11765054), 100 U/mL penicillin-streptomycin (Invitrogen, cat. 15140122), and 2.5% Matrigel (Corning Inc., cat. 354248) for the first three passages. The 857933-349-R-J2-PDC line was cultured in 6C/Colon 1B media, which includes advanced DMEM/F-12 (Thermo Fisher Scientific, cat. 12634028), 10 mM HEPES (Thermo Fisher Scientific, cat. 15630080), 1X GlutaMAX supplement (Thermo Fisher Scientific, cat. 35050061), 0.1 mg/mL primocin (InvivoGen, cat. ant-pm-2), 10% defined fetal bovine serum, heat inactivated (HyClone Laboratories Inc., cat. SH30070.03HI), 50% L-WRN conditioned media (ATCC, cat. CRL-3276), 1.25 mM N-Acetyl-L-cysteine (Sigma-Aldrich, cat. A9165), 10 mM nicotinamide (Sigma-Aldrich, cat. N0636), 1X B-27 supplement (Thermo Fisher Scientific, cat. 17504044), 1X N-2 supplement (Thermo Fisher Scientific, cat. 17502048), 10 microM Y-27632 dihydrochloride (Tocris Bioscience, cat. 1254), and 50 ng/mL human EGF recombinant protein (Thermo Fisher Scientific, cat. PHG0311). The 485176-168-R4-J1-PDC line was cultured in Panc media, which includes all 6C/Colon 1B media components plus 100 ng/mL human FGF-10 (Thermo Fisher Scientific, cat. 100-26), 500 nM SB-431542 (Selleckchem, cat. S1067), and gastrin (Tocris, cat. 3006).
[…]
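Also: spheroids exposed to compounds for seven days.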
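For viability, T/C in this document: 100% = DMSO vehicle control viability.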

C#Cc1c(F)ccc2cc(O)cc(-c3ncc4c(N5CC6CCC(C5)N6)nc(OCC56CCCN5CC(F)C6)nc4c3F)c12 (configuration not stated) + Cc1cnc(CNC(=O)c2c(=O)c3ccc(N4CCCN(C)CC4)nc3n3c2sc2ccccc23)cn1
pIC50 (second compound 0.0316 µM): < 5.00
pIC50 (second compound 0.1 µM): < 5.00
pIC50 (second compound 0.316 µM): 7.05
pIC50 (second compound 1 µM): > 7.50
pIC50 (second compound 3.16 µM): > 7.50
pIC50 (second compound 10 µM): > 7.50
viability, T/C (second compound 0.0316 µM, first compound 0.0316 µM): 75.3%
viability, T/C (second compound 0.0316 µM, first compound 0.1 µM): 81.8%
viability, T/C (second compound 0.0316 µM, first compound 0.316 µM): 74.4%
viability, T/C (second compound 0.0316 µM, first compound 1 µM): 70%
viability, T/C (second compound 0.0316 µM, first compound 3.16 µM): 86.9%
viability, T/C (second compound 0.0316 µM, first compound 10 µM): 56.8%
viability, T/C (second compound 0.1 µM, first compound 0.0316 µM): 64.3%
viability, T/C (second compound 0.1 µM, first compound 0.1 µM): 70.2%
viability, T/C (second compound 0.1 µM, first compound 0.316 µM): 56%
viability, T/C (second compound 0.1 µM, first compound 1 µM): 51.6%
viability, T/C (second compound 0.1 µM, first compound 3.16 µM): 54%
viability, T/C (second compound 0.1 µM, first compound 10 µM): 61.1%
viability, T/C (second compound 0.316 µM, first compound 0.0316 µM): 61.9%
viability, T/C (second compound 0.316 µM, first compound 0.1 µM): 51.4%
viability, T/C (second compound 0.316 µM, first compound 0.316 µM): 42.5%
viability, T/C (second compound 0.316 µM, first compound 1 µM): 37%
viability, T/C (second compound 0.316 µM, first compound 3.16 µM): 41.2%
viability, T/C (second compound 0.316 µM, first compound 10 µM): 50.3%
viability, T/C (second compound 1 µM, first compound 0.0316 µM): 42.1%
viability, T/C (second compound 1 µM, first compound 0.1 µM): 45.2%
viability, T/C (second compound 1 µM, first compound 0.316 µM): 38.4%
viability, T/C (second compound 1 µM, first compound 1 µM): 36.2%
viability, T/C (second compound 1 µM, first compound 3.16 µM): 50.2%
viability, T/C (second compound 1 µM, first compound 10 µM): 44.5%
viability, T/C (second compound 3.16 µM, first compound 0.0316 µM): 46.6%
viability, T/C (second compound 3.16 µM, first compound 0.1 µM): 43.8%
viability, T/C (second compound 3.16 µM, first compound 0.316 µM): 42.2%
viability, T/C (second compound 3.16 µM, first compound 1 µM): 44.6%
viability, T/C (second compound 3.16 µM, first compound 3.16 µM): 45.9%
viability, T/C (second compound 3.16 µM, first compound 10 µM): 42.5%
viability, T/C (second compound 10 µM, first compound 0.0316 µM): 40.5%
viability, T/C (second compound 10 µM, first compound 0.1 µM): 38.7%
viability, T/C (second compound 10 µM, first compound 0.316 µM): 39.3%
viability, T/C (second compound 10 µM, first compound 1 µM): 44.8%
viability, T/C (second compound 10 µM, first compound 3.16 µM): 40.3%
viability, T/C (second compound 10 µM, first compound 10 µM): 34.2%
